Measurements as given in BigSolDB 2.1.

C[N+](C)(C)C[C@H](O)CC(=O)[O-]
solubility (mole fraction)
Conditions | in acetone | in ethanol | in isopropanol | in methanol
278.15 K | 7.1e-05 | 0.0392 | 0.00146 | 0.0962
283.15 K | 8.1e-05 | 0.0408 | 0.00181 | 0.0982
288.15 K | 9.1e-05 | 0.0431 | 0.00223 | 0.104
293.15 K | 0.000106 | 0.0452 | 0.00271 | 0.111
298.15 K | 0.000117 | 0.0483 | 0.0034 | 0.119
303.15 K | 0.000131 | 0.0517 | 0.00417 | 0.127
308.15 K | 0.000143 | 0.0546 | 0.00527 | 0.136
313.15 K | 0.000157 | 0.0576 | 0.0063 | 0.144
318.15 K | 0.000175 | 0.0607 | 0.00778 | 0.154
323.15 K | 0.000195 | 0.0648 | 0.00983 | 0.165
328.15 K | 0.00022 | 0.0698 | 0.0118 | 0.178
333.15 K | – | 0.0747 | 0.0144 | 0.189
338.15 K | – | 0.0801 | – | –
343.15 K | – | 0.0855 | – | –
348.15 K | – | 0.0919 | – | –
